Measured values from ChEMBL document CHEMBL3112468, “δ-Thiolactones as prodrugs of thiol-based glutamate carboxypeptidase II (GCPII) inhibitors” (J Med Chem, 2014).
The source made the active and inactive calls. No cut-off for these calls is given here.

Legend:
Liver microsome [1] = test: Prodrug conversion in rat liver microsomes assessed as 2-MPPA formation at 10 uM by LC/MS/MS analysis; assay type: ADME; conditions: TDE = time-dependent effect
Liver microsome [2] = test: Prodrug conversion in rat liver microsomes at 10 uM after 1.5 hrs by LC/MS/MS analysis; assay type: ADME
[3] = Prodrug conversion in simulated gastric fluid at pH 1.2 after 48 hrs by HPLC analysis; assay type: ADME; conditions: simulated gi fluid, pH 1.2, 48 h
[4] = target: Glutamate carboxypeptidase 2 (Homo sapiens, UniProt Q04609); test: Inhibition of human recombinant GCP2 using N-acetyl-L-aspartyl[3H]-L-glutamate as substrate
Chain of Glutamate carboxypeptidase 2 (Q04609 whole entry): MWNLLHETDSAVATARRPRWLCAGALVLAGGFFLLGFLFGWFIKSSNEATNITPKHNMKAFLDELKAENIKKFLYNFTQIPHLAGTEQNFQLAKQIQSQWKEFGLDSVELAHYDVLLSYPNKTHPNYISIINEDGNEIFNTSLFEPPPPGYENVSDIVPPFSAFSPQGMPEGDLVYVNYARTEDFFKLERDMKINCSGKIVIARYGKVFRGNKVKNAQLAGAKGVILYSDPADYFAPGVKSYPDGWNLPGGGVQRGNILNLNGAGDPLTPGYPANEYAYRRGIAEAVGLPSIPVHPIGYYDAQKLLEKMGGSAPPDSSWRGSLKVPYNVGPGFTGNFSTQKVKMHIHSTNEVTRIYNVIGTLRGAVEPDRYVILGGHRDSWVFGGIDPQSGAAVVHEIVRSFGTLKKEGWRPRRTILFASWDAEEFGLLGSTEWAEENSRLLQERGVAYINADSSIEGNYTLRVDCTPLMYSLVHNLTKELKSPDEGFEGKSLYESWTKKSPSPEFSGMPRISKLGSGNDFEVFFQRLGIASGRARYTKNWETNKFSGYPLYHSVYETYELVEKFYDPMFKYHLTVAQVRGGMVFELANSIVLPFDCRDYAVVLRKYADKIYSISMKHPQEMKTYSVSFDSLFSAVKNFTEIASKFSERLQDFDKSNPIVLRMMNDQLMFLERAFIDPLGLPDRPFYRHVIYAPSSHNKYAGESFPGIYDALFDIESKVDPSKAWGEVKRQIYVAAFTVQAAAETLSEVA

Plasma = test: Prodrug conversion in rat plasma assessed as 2-MPPA formation at 10 mg/kg, po after 0.25 to 3 hrs; assay type: ADME, organism-based; parameters: dose 10 mg/kg, route oral; conditions: in vivo
Rattus norvegicus = test: Antinociceptive effect in rat chronic constriction injury model of neuropathic pain assessed as reduction of CCI-induced thermal hyperalgesia at 10 mg/kg/day, po after 11 to 18 days relative to vehicle-treated control; assay type: functional, organism-based

Row | SMILES | Activity (Liver microsome [1]) | Stability (Liver microsome [2]) | Stability [3] | IC50 [4] [µM] | Drug metabolism (Plasma) | Activity (Rattus norvegicus)
1 | O=C(O)CCC(CCCS)C(=O)O (stereo not drawn) | tde | – | – | – | – | –
2 | O=C(O)c1cccc(-c2cccc3c2C(=O)SCC3)c1 | – | Stable | Stable | 20 | – | –
3 | O=C(O)CCC1CCCSC1=O (racemic) | – | – | Stable | 2 | Active | Active
